As a reminder, the Ki is a measure of affinity in units of concentration, obtained from inhibition or displacement.

Several values for one entry are separate records, joined by “and”; a condition that tells them apart may be missing. Equal values may be shown once.

The target of the test is Hrh3 protein (Rattus norvegicus, UniProt Q5PPG3).
Sequence of Hrh3 protein (Q5PPG3 whole entry): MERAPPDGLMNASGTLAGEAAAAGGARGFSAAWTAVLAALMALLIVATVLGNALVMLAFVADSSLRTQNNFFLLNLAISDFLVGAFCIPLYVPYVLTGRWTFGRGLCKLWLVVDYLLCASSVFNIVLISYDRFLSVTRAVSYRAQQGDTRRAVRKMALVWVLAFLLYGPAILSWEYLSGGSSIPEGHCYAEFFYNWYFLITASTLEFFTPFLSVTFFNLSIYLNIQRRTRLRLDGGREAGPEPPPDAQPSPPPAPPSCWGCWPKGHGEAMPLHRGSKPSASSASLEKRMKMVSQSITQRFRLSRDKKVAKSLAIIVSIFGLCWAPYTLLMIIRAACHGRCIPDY
For `C[C@H](N)Cc1c[nH]cn1` [CAS_75614-93-6], the Ki was 77 nM and 470 nM and 50 nM.
Then `Cc1[nH]cnc1CSCCNC(=N)NCCCc1c[nH]cn1` [2-[3-(1H-imidazol-5-yl)propyl]-1-(2-{[(5-methyl-1H-imidazol-4-yl)methyl]sulfanyl}ethyl)guanidine], with 75 nM and 65 nM and 45 nM.
As for `N=C(N)SCCc1cnc[nH]1` [2-(3H-imidazol-4-yl)ethylsulfanylmethanimidamide], the figure is 0.15 nM and 1 nM and 0.1 nM.
Then `C[C@@H](N)Cc1c[nH]cn1`, with 4 nM and 0.5 nM; and `S=C(NC1CCCCC1)N1CCC(c2cnc[nH]2)CC1`, with 4 nM and 2 nM.
For `CNC(=S)NCCCCc1cnc[nH]1` [1-[4-(1H-imidazol-5-yl)butyl]-3-methylthiourea], the Ki was 68 nM and 70 nM and 180 nM.
Then `CCCCCCC(=O)N1CCC(c2cnc[nH]2)CC1` [Carboperamide], with 6.1 nM and 20 nM.

Source of the values: BindingDB's records for PubMed 7965746 (U. 109, 1994).
